Results on three molecules are retold here after BindingDB's records for doi:10.1016/j.bmc.2006.10.040 (University of Camerino, 2007).

The target of assay [1] is T1, Muscarinic acetylcholine receptor M5 (Homo sapiens, UniProt P08912).
T1 sequence (P08912 whole entry): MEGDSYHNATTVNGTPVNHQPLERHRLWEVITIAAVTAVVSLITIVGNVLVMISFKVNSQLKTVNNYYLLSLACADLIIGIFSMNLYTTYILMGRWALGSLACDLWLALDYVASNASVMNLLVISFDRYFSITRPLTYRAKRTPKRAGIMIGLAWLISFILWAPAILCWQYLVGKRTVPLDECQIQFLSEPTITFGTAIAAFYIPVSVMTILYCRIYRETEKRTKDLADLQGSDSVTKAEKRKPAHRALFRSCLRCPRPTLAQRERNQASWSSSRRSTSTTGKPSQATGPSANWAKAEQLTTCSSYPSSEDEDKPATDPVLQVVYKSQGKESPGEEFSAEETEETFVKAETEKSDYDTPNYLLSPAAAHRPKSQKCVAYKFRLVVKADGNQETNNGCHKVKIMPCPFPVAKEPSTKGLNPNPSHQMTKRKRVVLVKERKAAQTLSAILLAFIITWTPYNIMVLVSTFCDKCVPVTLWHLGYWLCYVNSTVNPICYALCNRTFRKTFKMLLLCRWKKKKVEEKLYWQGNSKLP
Nature of the assay: Agonist activity at human muscarinic M5 receptor expressed in CHO cells.

Assay [2] addresses T2, Muscarinic acetylcholine receptor M2 (Homo sapiens, UniProt P08172).
T2 sequence (P08172 whole entry): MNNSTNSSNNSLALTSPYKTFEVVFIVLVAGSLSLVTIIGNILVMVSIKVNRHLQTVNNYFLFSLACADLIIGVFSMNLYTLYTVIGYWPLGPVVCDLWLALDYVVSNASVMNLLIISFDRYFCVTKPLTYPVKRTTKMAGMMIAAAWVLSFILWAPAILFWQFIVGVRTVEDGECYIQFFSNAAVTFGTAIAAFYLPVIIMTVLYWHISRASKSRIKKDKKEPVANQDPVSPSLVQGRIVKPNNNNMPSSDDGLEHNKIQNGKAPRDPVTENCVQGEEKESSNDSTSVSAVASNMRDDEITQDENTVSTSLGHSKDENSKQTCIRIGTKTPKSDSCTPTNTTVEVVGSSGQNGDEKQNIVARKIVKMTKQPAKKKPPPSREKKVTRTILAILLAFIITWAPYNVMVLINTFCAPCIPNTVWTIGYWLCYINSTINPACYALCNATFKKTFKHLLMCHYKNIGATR
Nature of the assay: Agonist activity at human muscarinic M2 receptor expressed in CHO cells.

Turning to `CC1COCC(C[N+](C)(C)C)O1` (centres undefined), the concentration for a half-maximal effect (EC50) (in general, the concentration needed to bring the measured effect to its halfway point) in assay [1] came to 7.94 µM.
Take `C[C@@H]1COC[C@H](C[N+](C)(C)C)O1`: in assay [2], the half-maximal effective concentration (EC50) was determined as 15.4 µM.
For `C[C@H]1COC[C@@H](C[N+](C)(C)C)O1`, the EC50 is 37.1 µM in assay [2] and 3.71 µM in assay [1].
